{"source": "patent US5952323A", "about": "“Carbapenem antibiotic” (Merck & Co., Inc., priority 1998, dated 1999)", "key": {"[1]": {"assay_type": "physicochemical", "settings": "25° C.", "description": "The final pH of the solution is shown below. Solution stability of this intravenous formulation was determined at 25° C. with the following results."}, "[2]": {"test": "pH of the solution upon dissolution", "assay_type": "physicochemical", "settings": "monosodium salt of compound I", "text": "The compositions of the present invention are generally formulated using a carbon dioxide source. Preferred sources of carbon dioxide are carbon dioxide (gas, liquid or solid), carbonates and bicarbonates, and more preferably sodium carbonate and sodium bicarbonate, which can be incorporated into the formulation, such that an appropriate pH, e.g., about 6.2-8.5, is obtained upon dissolution. The native pH of the monosodium salt of compound I is approximately 5.4.\nOne formulation that is of particular interest is comprised of about 3-6 parts by weight, and preferably about 4.5 parts by weight, of compound I, or the pharmaceutically acceptable salt, stabilized form, prodrug or hydrate thereof, and 1 part by weight of sodium bicarbonate. Preferably the carbapenem is in the form of the monosodium salt. The pH which results upon dissolution of this formulation is approximately 6.5. Formulating the drug in this manner can extend the stability of the product in solution.\nAnother formulation that is of particular interest is comprised of about 4-10 parts by weight, and preferably about 6.7 parts by weight, of the compound of formula I, or the pharmaceutically acceptable salt, stabilized form, prodrug or hydrate thereof, and 1 part by weight sodium carbonate. Preferably the carbapenem is in the form of the monosodium salt. […]"}, "[3]": {"test_system": "dehydropeptidase (DHP)", "test": "Susceptibility to attack by dehydropeptidase (DHP)", "assay_type": "in vitro ADME", "settings": "compared with naturally occurring carbapenems", "text": "The compound of formula I is of the broad class known as carbapenems. Naturally occurring carbapenems are susceptible to attack by a renal enzyme known as dehydropeptidase (DHP). This attack or degradation may reduce the efficacy of the carbapenem antibacterial agent. […] However, use of a DHP inhibitor is optional and is contemplated as being included in the present invention. Inhibitors of DHP and heir use with carbapenem antibacterial agents are disclosed in European Patent Applications No. 79102616.4, filed Jul. 24, 1979 (Patent No. 007 614); and No. 82107174.3, filed Aug. 9, 1982 (Publication No. 072 014)!.\nThe compound of the present invention may, where DHP inhibition is desired or necessary, be combined or used with the appropriate DHP inhibitor as described in the aforesaid patents and published application. The cited European Patent Application defines the procedure for determining DHP susceptibility of the present carbapenems and disclose suitable inhibitors, combination compositions and methods of treatment."}}, "note": "Where two headings read alike, the source gives them in different places.", "data": [{"compound": "CC(O)C1C(=O)N2C(C(=O)O)=C(SC3CNC(C(=O)Nc4cccc(C(=O)O)c4)C3)C(C)C12", "note": "(stereo not shown) [Compound I]", "values": [{"measurement": "final pH", "setting": "[1]; 12 mg/mL (marked *)", "value": 7.4}, {"measurement": "k", "setting": "[1]; 12 mg/mL (marked *)", "value": 0.004994, "unit": "h⁻¹"}, {"measurement": "t 90%", "setting": "[1]; 12 mg/mL (marked *)", "value": 21.0, "unit": "h"}, {"measurement": "initial pH", "setting": "[1]; 12 mg/mL (marked *), intravenous formulation", "value": 7.0}, {"measurement": "final pH", "setting": "[1]; 36 mg/mL", "value": 7.3}, {"measurement": "k", "setting": "[1]; 36 mg/mL", "value": 0.01044, "unit": "h⁻¹"}, {"measurement": "t 90%", "setting": "[1]; 36 mg/mL", "value": 7.3, "unit": "h"}, {"measurement": "initial pH", "setting": "[1]; 36 mg/mL, intravenous formulation with sodium bicarbonate 8.0 mg/mL, sodium chloride 4.0 mg/mL", "value": 6.7}, {"measurement": "native pH", "setting": "[2]", "value": "approximately 5.4"}, {"measurement": "susceptibility to attack by dehydropeptidase (DHP)", "setting": "[3]", "value": "significantly less subject to such attack"}]}]}
